Columns and labels:
[1] = tested on: C57BL/6J mice subjected to ICH; test: Forelimb placing test after ICH; format: in vivo; settings: 1 mg/kg i.p. 45 minutes prior to ICH, then twice daily; 72 hours after ICH
Protocol: (§1) Animal Preparation and Intracerebral Infusion. Adult male C57BL/6J mice weighing 23-30 g were used. Mice were randomized to receive intraperitoneal injection of either C3aRA (1 mg/kg) (SB290157, Calbiochem, Darmstadt, Germany) diluted in PBS and DMSO (1.16% v/v), or an equal volume of vehicle (PBS and DMSO, 1.16% DMSO v/v) either 45 minutes prior to ICH induction or 6 and 12 hours after induction of ICH, followed in both cohorts by twice daily doses for 72 hours. […] Sham animals were given PBS and DMSO (1.16% v/v) in the same manner.
(§2) Mice were anesthetized with a single intraperitoneal dose of ketamine (90 mg/kg) and xylazine (5 mg/kg). […]
(§3) Neurofunction and behavioral testing. Sensorimotor function was evaluated by means of the 28-point neurological function score, corner test and forelimb placing tests, which were performed pre-operatively and at 6, 24, 48 and 72 hour post-injury. Navigational memory was evaluated with the means of a Morris water-maze (MWM) test pre-operatively and at 72 hours post ICH. […]
Forelimb placing test. […] Each animal was tested 10 times for each forelimb, and the percentage of trials in which the mouse placed the appropriate forelimb on the edge of the table after vibrissae stimulation was determined.

[2] = tested on: C57BL/6J mice subjected to ICH; test: Morris water-maze test (MWM) after ICH; format: in vivo; settings: then twice daily, 72 hours after ICH, mean±SEM
Protocol: as §1, §2, §3
Morris water-maze test (MWM). […] The time, in seconds, spent by each animal to find the platform was recorded. […] The time spent in the quadrant where the platform had been situated before was recorded. […]

NC(N)=NCCC[C@H](NC(=O)COCC(c1ccccc1)c1ccccc1)C(=O)O [C3aRA]
forelimb placing capacity in the impaired limb [1]: no significant deficits compared with sham animals
MWM time spent in the target quadrant ([2]; 1 mg/kg i.p. 45 minutes prior to ICH): 19.62 ± 1.08 s
MWM time spent in the target quadrant ([2]; 1 mg/kg i.p. first at 6 h and 12 h after ICH): 18.9 ± 1.3 s

Source: patent US9180160B2, “Complement inhibitors for treatment of injury from intracerebral hemorrhage” (The Trustees of the University of Pennsylvania, priority 2008, dated 2015)
